Data: US8557800B2, “Sphingosine kinase inhibitors” (Apogee Biotechnology Corporation, priority 2005, dated 2013)

System: MCF-7 human breast adenocarcinoma cells
Experiment: Cytotoxicity, SRB binding assay
Format: cell-based
Details: MCF7, inhibition of cell proliferation, 48 h, read-out: MCF-7 IC50
Protocol: To further assess the biological efficacies of the Compounds in intact cells, each Compound was evaluated for cytotoxicity using human cancer cell lines. These experiments followed methods that have been extensively used. Cell lines tested included MCF-7 human breast adenocarcinoma cells and MCF-10A non-transformed human breast epithelial cells. The indicated cell lines were treated with varying doses of the test Compound for 48 h. Cell survival was then determined using the SRB binding assay (Skehan et al., 1990, J Natl Cancer Inst 82: 1107), and the concentration of compound that inhibited proliferation by 50% (the IC50) was calculated. Values (in μM) represent the mean±sd for replicate trials.

| Compound | IC50 [µM] |
| --- | --- |
| O=C(NCc1cccc(C(F)(F)F)c1)C12CC3CC(C1)CC(c1ccc(Cl)cc1)(C3)C2 [Compound 15, 3-(4-Chloro-phenyl)-adamantane-1-carboxylic acid 3-trifluoromethyl-benzylamide] | > 112 |
| O=C(NCc1ccc(C(F)(F)F)cc1F)C12CC3CC(C1)CC(c1ccc(Cl)cc1)(C3)C2 [Compound 19, 3-(4-Chloro-phenyl)-adamantane-1-carboxylic acid 2-fluoro-4-trifluoromethyl-benzylamide] | > 108 |
| CC(C)NCC12CC3CC(C1)CC(c1ccc(Cl)cc1)(C3)C2 [Compound 75, [3-(4-Chloro-phenyl)-adamantan-1-ylmethyl]-isopropyl-amine] | 11 |
| CC(Nc1ccccc1)C12CC3CC(CC(c4ccc(F)cc4)(C3)C1)C2 (stereo not drawn) [Compound 94, {1-[3-(4-Fluoro-phenyl)-adamantan-1-yl]-ethyl}-phenyl-amine] | 0.6 |
| CC(NCc1ccccc1)C12CC3CC(CC(c4ccccc4)(C3)C1)C2 (stereo not drawn) [Compound 97, Benzyl-[1-(3-phenyl-adamantan-1-yl)-ethyl]-amine] | 0.5 |
| CC(NCc1ccccc1)C12CC3CC(CC(c4ccc(F)cc4)(C3)C1)C2 (stereo not drawn) [Compound 98, Benzyl-{1-[3-(4-fluoro-phenyl)-adamantan-1-yl]-ethyl}-amine] | 3 |
| CC(NCc1ccccc1)C12CC3CC(CC(c4ccc(Cl)cc4)(C3)C1)C2 (stereo not drawn) [Compound 99, Benzyl-{1-[3-(4-chloro-phenyl)-adamantan-1-yl]-ethyl}-amine] | 0.7 |
| CC(NCc1ccc(C(C)(C)C)cc1)C12CC3CC(CC(c4ccc(Cl)cc4)(C3)C1)C2 (stereo not drawn) [Compound 100, (4-tert-Butyl-benzyl)-{1-[3-(4-chloro-phenyl)-adamantan-1-yl]-ethyl}-amine] | 0.3 |
| CC(NC(C)C12CC3CC(CC(c4ccc(Cl)cc4)(C3)C1)C2)c1ccc(Br)cc1 (stereo not drawn) [Compound 101, [1-(4-Bromo-phenyl)-ethyl]-{1-[3-(4-chloro-phenyl)-adamantan-1-yl]-ethyl}-amine] | 10 |
| CC(NCCc1ccc(Br)cc1)C12CC3CC(CC(C3)C1)C2 (stereo not drawn) [Compound 102, (1-Adamantan-1-yl-ethyl)-[2-(4-bromo-phenyl)-ethyl]-amine] | 2 |
| CC(NN1CCN(C)CC1)C12CC3CC(CC(c4ccc(Cl)cc4)(C3)C1)C2 (stereo not drawn) [Compound 108, {1-[3-(4-Chloro-phenyl)-adamantan-1-yl]-ethyl}-(4-methyl-piperazin-1-yl)-amine] | 5 |
| CC(NCc1ccncc1)C12CC3CC(CC(c4ccccc4)(C3)C1)C2 (stereo not drawn) [Compound 109, [1-(3-Phenyl-adamantan-1-yl)-ethyl]-pyridin-4-ylmethyl-amine] | 26 |
| CC(NCc1ccc(Cl)nc1)C12CC3CC(CC(c4ccc(Cl)cc4)(C3)C1)C2 (stereo not drawn) [Compound 110, {1-[3-(4-Chloro-phenyl)-adamantan-1-yl]-ethyl}-(6-chloro-pyridin-3-ylmethyl)-amine] | 6 |
| CC(NCCc1ccncc1)C12CC3CC(CC(c4ccc(Cl)cc4)(C3)C1)C2 (stereo not drawn) [Compound 111, {1-[3-(4-Chloro-phenyl)-adamantan-1-yl]-ethyl}-(2-pyridin-4-yl-ethyl)-amine] | 13 |
| CC(NCc1cnc[nH]1)C12CC3CC(CC(c4ccc(Cl)cc4)(C3)C1)C2 (stereo not drawn) [Compound 112, {1-[3-(4-Chloro-phenyl)-adamantan-1-yl]-ethyl}-(3H-imidazol-4-ylmethyl)-amine] | 5 |
| Cc1cc2cc(NC(C)C34CC5CC(CC(c6ccc(Cl)cc6)(C5)C3)C4)ccc2[nH]1 (stereo not drawn) [Compound 113, {1-[3-(4-Chloro-phenyl)-adamantan-1-yl]-ethyl}-(2-methyl-1H-indol-5-yl)-amine] | 14 |
| CCn1c2ccccc2c2cc(CNC(C)C34CC5CC(CC(c6ccc(Cl)cc6)(C5)C3)C4)ccc21 (stereo not drawn) [Compound 115, {1-[3-(4-Chloro-phenyl)-adamantan-1-yl]-ethyl}-(9-ethyl-9H-carbazol-3-ylmethyl)-amine] | 1 |
| CCn1c2ccccc2c2cc(C(=O)NC(C)C34CC5CC(CC(c6ccc(Cl)cc6)(C5)C3)C4)ccc21 (stereo not drawn) [Compound 116, 9-Ethyl-9H-carbazole-3-carboxylic acid {1-[3-(4-chloro-phenyl)-adamantan-1-yl]-ethyl}-amide] | 6 |
| CC(NC(=O)Nc1ccc(Cl)c(C(F)(F)F)c1)C12CC3CC(CC(c4ccc(Cl)cc4)(C3)C1)C2 (stereo not drawn) [Compound 117, 1-{1-[3-(4-Chloro-phenyl)-adamantan-1-yl]-ethyl}-3-(4-chloro-3-trifluoromethyl-phenyl)-urea] | 3 |
| CC(NCc1cc(Br)cs1)C12CC3CC(CC(c4ccc(Cl)cc4)(C3)C1)C2 (stereo not drawn) [Compound 119, (4-Bromo-thiophen-2-ylmethyl)-{1-[3-(4-chloro-phenyl)-adamantan-1-yl]-ethyl}-amine] | 11 |
| CC(NCc1cc(-c2ccccc2)cs1)C12CC3CC(CC(c4ccc(Cl)cc4)(C3)C1)C2 (stereo not drawn) [Compound 120, {1-[3-(4-Chloro-phenyl)-adamantan-1-yl]-ethyl}-(4-phenyl-thiophen-2-ylmethyl)-amine] | 108 |
| O=C(/C=C/c1cc(-c2ccccc2)cs1)C12CC3CC(C1)CC(c1ccc(Cl)cc1)(C3)C2 [Compound 137, 1-[3-(4-Chloro-phenyl)-adamantan-1-yl]-3-(4-phenyl-thiophen-2-yl)-propenone] | 9 |

System: recombinant human SK
Experiment: Inhibition of recombinant human SK, LC/MS/MS assay
Format: biochemical
Details: 6 μg/ml compound
Protocol: SK activity is measured by incubation of the recombinant SK with [^3H]sphingosine and 1 mM ATP under defined conditions, followed by extraction of the assay mixture with chloroform:methanol under basic conditions. […] Radioactivity in aliquots of the aqueous phase is then quantified as a measure of [^3H]S1P formation.
In an alternate assay procedure, the recombinant human SK was incubated with unlabeled sphingosine and ATP as described above. After 30 minutes, the reactions were terminated by the addition of acetonitrile to directly extract the newly synthesized S1P. The amount of S1P in the samples is then quantified as follows. C17 base D-erythro-sphingosine and C17 SIP are used as internal standards for sphingosine and S1P, respectively. […] The lipids are then fractionation by High-Performance Liquid Chromatography using a C8-reverse phase column eluted with 1 mM methanolic ammonium formate/2 mM aqueous ammonium formate. […] Calibration curves are generated by plotting the peak area ratios of the synthetic standards for each sphingolipid, and used to determine the normalized amounts of sphingosine and S1P in the samples.
Each Compound of this invention was tested for its ability to inhibit recombinant SK using the LC/MS/MS assay described above.

| Compound | Recombinant SK (% inhibition) [%] |
| --- | --- |
| O=C(NCCCc1ccccc1)C12CC3CC(C1)CC(c1ccc(Cl)cc1)(C3)C2 [Compound 48, 3-(4-Chloro-phenyl)-adamantane-1-carboxylic acid (3-phenyl-propyl)-amide] | 36 |
| O=C1CCCN1CCCNC(=O)C12CC3CC(C1)CC(c1ccc(Cl)cc1)(C3)C2 [Compound 55, 3-(4-Chloro-phenyl)-adamantane-1-carboxylic acid [3-(2-oxo-pyrrolidin-1-yl)-propyl]-amide] | 8 |
| O=C(NCCN1CCNCC1)C12CC3CC(C1)CC(c1ccc(Cl)cc1)(C3)C2 [Compound 59, 3-(4-Chloro-phenyl)-adamantane-1-carboxylic acid (2-piperazin-1-yl-ethyl)-amide] | 0 |
| O=C(NCc1ccncc1)C12CC3CC(C1)CC(c1ccc(F)cc1)(C3)C2 [Compound 61, 3-(4-Fluoro-phenyl)-adamantane-1-carboxylic acid (pyridin-4-ylmethyl)-amide] | 58 |
| O=C(NCCCn1ccnc1)C12CC3CC(C1)CC(c1ccc(Cl)cc1)(C3)C2 [Compound 65, 3-(4-Chloro-phenyl)-adamantane-1-carboxylic acid (3-imidazol-1-yl-propyl)-amide] | 3 |
| O=C(Nc1nnn[nH]1)C12CC3CC(C1)CC(c1ccc(Cl)cc1)(C3)C2 [Compound 67, 3-(4-Chloro-phenyl)-adamantane-1-carboxylic acid (1H-tetrazol-5-yl)-amide] | 10 |
| FC(F)(F)c1ccc(CNCC23CC4CC(C2)CC(c2ccc(Cl)cc2)(C4)C3)cc1 [Compound 77, [3-(4-Chloro-phenyl)-adamantan-1-ylmethyl]-(4-trifluoromethyl-benzyl)-amine] | 27 |
| Fc1ccc(CNCC23CC4CC(C2)CC(c2ccc(Cl)cc2)(C4)C3)cc1C(F)(F)F [Compound 79, [3-(4-Chloro-phenyl)-adamantan-1-ylmethyl]-(4-fluoro-3-trifluoromethyl-benzyl)-amine] | 19 |
| FC(F)(F)Oc1ccc(CNCC23CC4CC(C2)CC(c2ccc(Cl)cc2)(C4)C3)cc1 [Compound 80, [3-(4-Chloro-phenyl)-adamantan-1-ylmethyl]-(4-trifluoromethoxy-benzyl)-amine] | 5 |
| Clc1ccc(C23CC4CC(CC(CNCCc5cccc(Oc6ccccc6)c5)(C4)C2)C3)cc1 [Compound 81, [3-(4-Chloro-phenyl)-adamantan-1-ylmethyl]-[2-(3-phenoxy-phenyl)-ethyl]-amine] | 67 |
| CN1CCC(NCC23CC4CC(C2)CC(c2ccc(Cl)cc2)(C4)C3)CC1 [Compound 82, [3-(4-Chloro-phenyl)-adamantan-1-ylmethyl]-(1-methyl-piperidin-4-yl)-amine] | 75 |
| CC(C)(C)NCCCNCC12CC3CC(C1)CC(c1ccc(Cl)cc1)(C3)C2 [Compound 84, N-tert-Butyl-N′-[3-(4-chloro-phenyl)-adamantan-1-ylmethyl]-propane-1,3-diamine] | 84 |
| Clc1ccc(C23CC4CC(CC(CNCCCN5CCCC5)(C4)C2)C3)cc1 [Compound 85, [3-(4-Chloro-phenyl)-adamantan-1-ylmethyl]-(3-pyrrolidin-1-yl-propyl)-amine] | 0 |
| CC(NC(=O)Nc1ccc(Cl)c(C(F)(F)F)c1)C12CC3CC(CC(c4ccc(Cl)cc4)(C3)C1)C2 (stereo not drawn) [Compound 118, 1-{1-[3-(4-Chloro-phenyl)-adamantan-1-yl]-ethyl}-3-(4-chloro-3-trifluoromethyl-phenyl)-urea] | 77 |
